These results are taken from US20240279218A1 (Hoffmann-La Roche Inc., priority 2016, published 2024).

For orientation: Ki means a dissociation constant, usually derived from enzyme kinetics or from competition with a known ligand.

Like-named read-outs stand apart in the source and are kept apart here.

Experiment [1] deals with T1, h-GABA-A α5β3γ2 (Homo sapiens (Human), UniProt P18507+P31644). Description: Two-electrode voltage clamp electrophysiology in Xenopus oocytes expressing GABAA receptors, modulation of GABA EC20 current. It is filed as cell-based. Summed up: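 Values are % modulation of an EC20 GABA response, derived point by point from the ratio of compound-exposed versus control current traces (extremum taken, 100×(fold−1)). Recordings used oocytes injected with human α5, β3, γ2 mRNA, clamped at −80 mV at room temperature, at least 3 oocytes each.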
In general terms: In two-electrode clamp one electrode senses voltage and the other passes current.

In experiment [2] the target is T1, h-GABA-A α5β3γ2. In words: [3H]flumazenil competition binding assay, membranes of HEK293 cells expressing human GABAA receptors. Summed up:
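Displacement of [3H]flumazenil from membranes of HEK293 cells transiently expressing human α5β3γ2 receptors, in Krebs-tris buffer pH 7.5. Incubation to equilibrium, 1 h at 4° C., then filtration and scintillation counting. Ki is the mean of two determinations.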

Where [3] appears, read: % modulation of GABA EC20 = 100*(Fold increase−1), Xenopus oocytes.
Where [4] appears, read: Xenopus oocytes, GABA EC20, test compound at approx. 30 fold its Ki.
[5] abbreviates: displacement of [3H]flumazenil 0.5 nM, HEK293 cells expressing human receptors, mean of two determinations, read-out: Ki h-GABA-A α5β3γ2.

For `Cc1ccc(-c2noc(C)c2COc2ccc(C(=O)N[C@H]3C[C@@H](OCC(F)F)C3)nn2)cn1` [Example 169, cis-N-3-((2,2-difluoroethoxy)cyclobutyl)-6-((5-methyl-3-(6-methylpyridin-3-yl)isoxazol-4-yl)methoxy)pyridazine-3-carboxamide], the “Efficacy (GABA) %” value in experiment [1] (setting [3]) is reported as 66%. Also, the “Fold increase h-GABA-A α5β3γ2 oocyte” value in experiment [1] (setting [4]) was determined as 1.66. Also, in experiment [2] (setting [5]), the Ki is 18.9 nM.

On to `CCO[C@H]1C[C@H](NC(=O)c2ccc(OCc3c(-c4ccc(C)nc4)noc3C)nn2)C1` [Example 172, trans-N-(3-ethoxycyclobutyl)-6-((5-methyl-3-(6-methylpyridin-3-yl)isoxazol-4-yl)methoxy)pyridazine-3-carboxamide], for which the “Efficacy (GABA) %” value in experiment [1] (setting [3]) is on record as 65%. The “Fold increase h-GABA-A α5β3γ2 oocyte” value in experiment [1] (setting [4]) was 1.65. Further, in experiment [2] (setting [5]), the Ki was determined as 8.8 nM.

With `Cc1ccc(-c2noc(C)c2COc2ccc(C(=O)N[C@H]3C[C@H](OC4CC4)C3)nn2)cn1` [Example 175, trans-N-(3-cyclopropoxycyclobutyl)-6-((5-methyl-3-(6-methylpyridin-3-yl)isoxazol-4-yl)methoxy)pyridazine-3-carboxamide], in experiment [1] (setting [3]), the “Efficacy (GABA) %” value amounted to 82%. The “Fold increase h-GABA-A α5β3γ2 oocyte” value in experiment [1] (setting [4]) was 1.82. Besides, the Ki in experiment [2] (setting [5]) was found to be 10.1 nM.

Turning to `Cc1ccc(-c2noc(C)c2COc2ccc(C(=O)NC3(C)CC3)nn2)cn1` [Example 76, 6-((5-methyl-3-(6-methylpyridin-3-yl)isoxazol-4-yl)methoxy)-N-(1-methylcyclopropyl)pyridazine-3-carboxamide], in experiment [1] (setting [3]), the “Efficacy (GABA) %” value was determined as 92%. For the same compound, the “Fold increase h-GABA-A α5β3γ2 oocyte” value in experiment [1] (setting [4]) was 1.92. The Ki in experiment [2] (setting [5]) was 9 nM.

For `Cc1ccc(-c2noc(C)c2COc2ccc(C(=O)NC3(C)CCOCC3)cn2)cn1` [Example 106, 6-((5-methyl-3-(6-methylpyridin-3-yl)isoxazol-4-yl)methoxy)-N-(4-methyltetrahydropyran-4-yl)nicotinamide], in experiment [1] (setting [3]), the “Efficacy (GABA) %” value stood at 64%. Also, in experiment [1] (setting [4]), the “Fold increase h-GABA-A α5β3γ2 oocyte” value was 1.64. For the same compound, the Ki in experiment [2] (setting [5]) was determined as 60.3 nM.

As to `Cc1onc(-c2ccc(C3CC3)nc2)c1COc1ccc(C(=O)NC2CCS(=O)(=O)CC2)cn1` [Example 130, 6-((3-(6-cyclopropyl-3-pyridyl)-5-methyl-isoxazol-4-yl)methoxy)-N-(1,1-dioxothian-4-yl)pyridine-3-carboxamide], the “Efficacy (GABA) %” value in experiment [1] (setting [3]) is 128%. For the same compound, in experiment [1] (setting [4]), the “Fold increase h-GABA-A α5β3γ2 oocyte” value worked out at 2.28. Besides, the Ki in experiment [2] (setting [5]) turned out to be 30.4 nM.

Regarding `COc1ccc(-c2noc(C)c2COc2ccc(C(=O)N3CCS(=O)(=O)CC3)cn2)cn1` [Example 140, (1,1-dioxidothiomorpholino)(6-((3-(6-methoxypyridin-3-yl)-5-methylisoxazol-4-yl)methoxy)pyridin-3-yl)methanone], in experiment [1] (setting [3]), the “Efficacy (GABA) %” value is given as 13%. Moreover, the “Fold increase h-GABA-A α5β3γ2 oocyte” value in experiment [1] (setting [4]) turned out to be 1.13. In addition, the Ki in experiment [2] (setting [5]) turned out to be 56 nM.

For `Cc1onc(-c2ccc(C3CC3)nc2)c1COc1ccc(C(=O)NC2CCOCC2)cn1` [Example 128, 6-((3-(6-cyclopropyl-3-pyridyl)-5-methyl-isoxazol-4-yl)methoxy)-N-tetrahydropyran-4-yl-pyridine-3-carboxamide], in experiment [1] (setting [3]), the “Efficacy (GABA) %” value amounted to 107%. In experiment [1] (setting [4]), the “Fold increase h-GABA-A α5β3γ2 oocyte” value is listed as 2.07. Moreover, in experiment [2] (setting [5]), the Ki stood at 6.1 nM.

With `Cc1ccc(-c2noc(C)c2COc2ccc(C(=O)NC(C)C)nn2)cn1` [Example 38, N-isopropyl-6-((5-methyl-3-(6-methylpyridin-3-yl)isoxazol-4-yl)methoxy)pyridazine-3-carboxamide], the “Efficacy (GABA) %” value in experiment [1] (setting [3]) worked out at 84%. Besides, the “Fold increase h-GABA-A α5β3γ2 oocyte” value in experiment [1] (setting [4]) was found to be 1.84. Moreover, in experiment [2] (setting [5]), the inhibition constant Ki was determined as 7.5 nM.

For `Cc1ccc(-c2noc(C)c2COc2cnc(C(=O)NCCO)cn2)cn1` [Example 90, N-(2-Hydroxyethyl)-5-((5-methyl-3-(6-methylpyridin-3-yl)isoxazol-4-yl)methoxy)pyrazine-2-carboxamide], the “Efficacy (GABA) %” value in experiment [1] (setting [3]) is given as 37%. In addition, in experiment [1] (setting [4]), the “Fold increase h-GABA-A α5β3γ2 oocyte” value turned out to be 1.37. For the same compound, the Ki in experiment [2] (setting [5]) amounted to 16.7 nM.

As for `Cc1ccc(-c2noc(C)c2COc2cnc(C(=O)NC3CCS(=O)(=O)CC3)cn2)cn1` [Example 72, N-(1,1-dioxothian-4-yl)-5-((5-methyl-3-(6-methyl-3-pyridyl)isoxazol-4-yl)methoxy)pyrazine-2-carboxamide], the “Efficacy (GABA) %” value in experiment [1] (setting [3]) was 130%. The “Fold increase h-GABA-A α5β3γ2 oocyte” value in experiment [1] (setting [4]) is listed as 2.3. The Ki in experiment [2] (setting [5]) is 11.4 nM.

As to `Cc1ccc(-c2noc(C3CC3)c2COc2ccc(C(=O)NC3CCOCC3)nn2)nn1` [Example 165, 6-((5-cyclopropyl-3-(6-methylpyridazin-3-yl)isoxazol-4-yl)methoxy)-N-(tetrahydropyran-4-yl)pyridazine-3-carboxamide], the “Efficacy (GABA) %” value in experiment [1] (setting [3]) came to 174%. Also, in experiment [1] (setting [4]), the “Fold increase h-GABA-A α5β3γ2 oocyte” value is given as 2.74. For the same compound, the Ki in experiment [2] (setting [5]) stood at 2.6 nM.

As for `COc1cc(OCc2c(-c3ccc(C)nc3)noc2C)ncc1C(=O)NC1CCOCC1` [Example 142, 4-methoxy-6-((5-methyl-3-(6-methylpyridin-3-yl)isoxazol-4-yl)methoxy)-N-(tetrahydropyran-4-yl)nicotinamide], the “Efficacy (GABA) %” value in experiment [1] (setting [3]) is reported as 44%. The “Fold increase h-GABA-A α5β3γ2 oocyte” value in experiment [1] (setting [4]) amounted to 1.44. Further, the Ki in experiment [2] (setting [5]) worked out at 4.7 nM.

Turning to `Cc1ccc(-c2noc(C)c2COc2ccc(C(=O)NCC3CC3)cn2)cn1` [Example 2, N-(cyclopropylmethyl)-6-((5-methyl-3-(6-methyl-3-pyridyl)isoxazol-4-yl)methoxy)pyridine-3-carboxamide], the “Efficacy (GABA) %” value in experiment [1] (setting [3]) is 63%. In addition, in experiment [1] (setting [4]), the “Fold increase h-GABA-A α5β3γ2 oocyte” value is reported as 1.63. In experiment [2] (setting [5]), the Ki was determined as 8.3 nM.

On to `Cc1ncc(-c2noc(C)c2COc2ccc(C(=O)NC(C)C)cn2)cc1F` [Example 144, 6((3-(5-fluoro-6-methyl-3-pyridyl)-5-methyl-isoxazol-4-yl)methoxy)-N-isopropyl-pyridine-3-carboxamide], for which, in experiment [1] (setting [3]), the “Efficacy (GABA) %” value is 15%. Moreover, the “Fold increase h-GABA-A α5β3γ2 oocyte” value in experiment [1] (setting [4]) is recorded as 1.15. In addition, the Ki in experiment [2] (setting [5]) worked out at 13.6 nM.

Regarding `Cc1ccc(-c2noc(C)c2COc2cc3c(cn2)C(=O)N(C2CCSCC2)C3)cn1` [Example 107, 6-((5-methyl-3-(6-methylpyridin-3-yl)isoxazol-4-yl)methoxy)-2-(tetrahydro-2H-thiopyran-4-yl)-1H-pyrrolo[3,4-c]pyridin-3(2H)-one], the “Efficacy (GABA) %” value in experiment [1] (setting [3]) is reported as 69%. The “Fold increase h-GABA-A α5β3γ2 oocyte” value in experiment [1] (setting [4]) is 1.69. In experiment [2] (setting [5]), the Ki came out at 9.6 nM.

On to `Cc1onc(-c2cccnc2)c1COc1ccc(C(=O)NC2CCOCC2)cn1` [RO-159, reference compound], for which the “Efficacy (GABA) %” value in experiment [1] (reference compounds, % modulation of GABA EC20) is reported as −12%. Also, in experiment [1] (reference compounds, GABAA α5β3γ2 overexpressing oocytes, GABA EC20), the “Fold increase h-GABA-A α5β3γ2 oocyte” value was found to be 0.88. In addition, in experiment [2] (reference compounds, GABAA receptor α5β3γ2, read-out: Ki α5-human), the Ki was 28 nM.

For `Cc1ccc(-c2noc(C)c2COc2nnc(C(N)=O)cc2C)cn1` [Example 70, 5-methyl-6-((5-methyl-3-(6-methylpyridin-3-yl)isoxazol-4-yl)methoxy)pyridazine-3-carboxamide], the “Efficacy (GABA) %” value in experiment [1] (setting [3]) is 54%. Also, the “Fold increase h-GABA-A α5β3γ2 oocyte” value in experiment [1] (setting [4]) turned out to be 1.54. Further, the Ki in experiment [2] (setting [5]) worked out at 1.2 nM.
